“And” between values parts separate entries of the source, which are not always exact repeats. Identical values can stand only once.
Key:
endogenous P2X4 channels = biological target: T1, endogenous P2X4 channels (Homo sapiens, UniProt Q99571); experiment: Human Monocyte P2X4 Assay (FLIPR); assay type: cell-based; conditions: primary human monocytes, 3 μM BzATP, one value per donor; for IC50: read-out: Human P2X4 Monocytes (FLIPR Assay) IC50 for different donors; for Emax: read-out: Human P2X4 Monocytes (FLIPR Assay) Efficacy for different donors
T1 construct: measure calcium influx through endogenous P2X4 channels into primary human monocytes; endogenous in cells; host or cells: primary human monocytes isolated from donor PBMCs
T1 sequence (Q99571 1-388): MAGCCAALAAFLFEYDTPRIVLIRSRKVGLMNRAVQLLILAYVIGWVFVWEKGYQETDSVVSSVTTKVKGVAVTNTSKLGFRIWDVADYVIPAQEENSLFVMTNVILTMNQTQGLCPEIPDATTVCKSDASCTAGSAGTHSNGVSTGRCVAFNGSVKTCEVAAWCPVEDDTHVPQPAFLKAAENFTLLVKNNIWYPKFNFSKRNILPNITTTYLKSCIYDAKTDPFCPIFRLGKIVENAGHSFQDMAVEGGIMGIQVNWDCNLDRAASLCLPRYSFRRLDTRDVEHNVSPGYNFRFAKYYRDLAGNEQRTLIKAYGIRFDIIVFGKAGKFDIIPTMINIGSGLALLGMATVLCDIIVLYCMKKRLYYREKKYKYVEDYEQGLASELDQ
Method: The principle of the assay is to measure calcium influx through endogenous P2X4 channels into primary human monocytes, following activation by 2′,3′-O-(4-benzoyl-benzoyl)-ATP (Bz-ATP). Intracellular calcium concentration changes were measured with a Flipr™ (Molecular Devices) device using a calcium sensitive dye (Fluo-8). In primary monocytes P2X4 is located at the lysosome membrane, therefore exocytosis has to be triggered to expose P2X4 at the cellular membrane.
Human peripheral blood mononuclear cells (PBMCs) from anticoagulated blood (blood cells, BC) were isolated via density gradient centrifugation. Whole blood was diluted 1:3 with PBS. Samples of 30 mL were layered carefully on top of 15 mL Biocoll (BIOCHROM) in 50 mL centrifuge tubes (Falcon). Tubes were centrifuged at 914×g for 25 min at RT without brake. The PBMC layer was removed with a 10 mL pipette and transferred into tubes with ice-cold PBS in a total volume of 50 mL. Cells were washed twice by pelleting at 300×g at 4° C., for 10 min and for 5 min respectively. PBMCs were re-suspended in 10 mL medium (X-vivo, Biozym Scientific) and counted in a Neubauer chamber.
Monocytes were isolated by negative selection using the Monocyte isolation kit II from Miltenyi (#130-091-153) according to the instructions. Isolation should be done fast and cells and solutions should be kept on ice at any time. PBMCs in batches of 10exp8 cells were pelleted (300×g, 10 min) and re-suspended with 300 μL MACS buffer in a 50 mL Falcon tube. FcR Blocking reagent (100 μl) and Biotin-Ab (100 μl) were added, mixed and incubated on ice for 10 min. MACS buffer (300 μL) and anti-Biotin Micro-beads (100 μL) were added, mixed and incubated on ice for 15 min. Cells were washed by pelleting (300×g for 10 min) and re-suspended in 500 μL MACS buffer. For each batch one separation column was placed in the MACS separator and rinsed with 3 mL MACS buffer. The cell suspension was added to the column, followed by 3×3 mL MACS buffer for washing, and the eluent containing the monocytes was collected. Cells were pelleted (300×g for 10 min), re-suspended in X-vivo medium and counted. Monocytes were seeded into fibronectin-coated micro-plates (384-well, black, flat transparent bottom; Corning #3848) at a density of 30,000 cells/well in 50 μL, and cultivated over night (37° C., 5% CO2).
Test substances were dissolved in 100% DMSO at a stock concentration of 10 mM and stored at −20° C. in aliquots. Serial dilutions (2×) were prepared in DMSO and diluted 500× with assay buffer to generate the antagonist plate. In the Flipr measurement, 10 μL per well were transferred (4× dilution) and a final top concentrations of 5 μM and 0.05% DMSO were obtained in the assay. Agonist BzATP was stored at 10 mM in aliquots and diluted to an intermediate concentration of 15 μM to generate the agonist plate. In the Flipr measurement, 10 μL per well were transferred (5× dilution) so that a final assay concentration of 3 μM was obtained.
For the experiment, the medium of the cell plate was discarded manually and 70 μL/well loading buffer was added and incubated for 1 h (37° C., 5% CO2). Loading buffer contained HBSS (w/o calcium/magnesium), 10 mM Hepes pH 7.4, 5 μM Fluo-8 (AM) (Tebu-bio) and 50 mM methylamine (Sigma) to trigger exocytosis. Loading buffer was discarded manually and 30 μL/well low-calcium assay buffer (5 mM KCl, 145 mM NaCl, 0.5 mM CaCl2), 13 mM glucose, 10 mM Hepes pH 7.4) was added. The antagonist plate was transferred (10 μL/well) and after 15 min at RT the agonist plate (10 μL/well) was transferred.
Agonist addition was recorded for 240 seconds after a 10 second baseline. For analysis, a baseline correction was applied, and the maximum of the curve was extracted. Data were normalized towards 0% inhibition (signal at 3 μM BzATP) and 100% inhibition (absence of BzATP stimulation) and fitted with a four-parameter sigmoidal inhibition curve using Prism Graph Pad to obtain IC50 values.

human P2X4 = biological target: T2, human P2X4 (Homo sapiens, UniProt Q99571); experiment: Human P2X4 HEK Cell FLIPR Assay; assay type: cell-based; parameters: expressed in transfected cells; host or cells: HEK293; conditions: HEK293 cells, agonist Bz-ATP at EC80
T2 sequence (Q99571 1-388): T1 sequence (Q99571 1-388)
Method: HEK293 cells stably expressing human P2X4 were plated in poly-D-lysine-coated 384-well plates at a seeding density of 30000 cells/well and incubated overnight. P2X4 function was assessed by measuring intracellular calcium changes using the calcium-chelating dye Fluo8-AM (Molecular Devices) on a fluorescent imaging plate reader (FLEX/FLIPR station; Molecular Devices). On the day of the assay, the medium was removed and the cells were incubated for 30 min at 37° C. and 5% CO2 in 30 μL of dye buffer (Hank's balanced salt solution, 10 mM HEPES, 1.8 mM CaCl2, 1 mM MgCl2, 2 mM probenecid, 5 mM D-glucose monohydrate, 5 μM Fluo8-AM, pH=7.4). Compounds diluted in probenecid buffer (Hank's balanced salt solution, 10 mM HEPES, 1.8 mM CaCl2, 1 mM MgCl2, 2 mM probenecid, 5 mM D-glucose monohydrate, pH=7.4) were added in a volume of 10 μL and allowed to incubate for 30 min at room temperature. The final assay DMSO concentration was 0.5%. The agonist, Bz-ATP (Tocris), was added in a volume of 10 μL at a concentration representing the EC80 value. The EC80 value of Bz-ATP was determined each assay day prior to compound profiling. The fluorescence was measured for an interval of 120 sec at 2 sec intervals. The excitation and emission wavelengths used to monitor fluorescence were 470-495 nm and 515-575 nm, respectively. The data was analyzed based on the increase in peak relative fluorescence units (RFU) compared to the basal fluorescence and the data was normalized to the agonist control. The compounds were tested in triplicates per plate and mean values were plotted in Excel XL-Fit to determine IC50 values, percentage of maximal inhibition and the Hill coefficients.

SMILES	IC50 (endogenous P2X4 channels)	IC50 (human P2X4) [nM]	Emax (endogenous P2X4 channels) [%]
NS(=O)(=O)c1cc(NC(=O)Cc2ccccc2Cl)cnc1-n1cc(C(F)(F)F)cn1 [Example 380, 2-(2-Chlorophenyl)-N-{5-sulfamoyl-6-[4-(trifluoromethyl)-1H-pyrazol-1-yl]pyridin-3-yl}acetamide]	263 nM and 251 nM and 434 nM and 93 nM and 50 nM and 207 nM	299	
NS(=O)(=O)c1cc(NC(=O)Cc2ccccc2Cl)ccc1-c1cnn(C(F)F)c1 [Example 326, 2-(2-Chlorophenyl)-N-{4-[1-(difluoromethyl)-1H-pyrazol-4-yl]-3-sulfamoylphenyl}acetamide]	407 nM and 167 nM and 149 nM and 45 nM and 49 nM	17	
NS(=O)(=O)c1cc(NC(=O)Cc2ccccc2Cl)ccc1-n1cc(F)cn1 [Example 26, 2-(2-Chlorophenyl)-N-[4-(4-fluoro-1H-pyrazol-1-yl)-3-sulfamoylphenyl]acetamide]	290 nM and 182 nM	27	71

Other lines, results leading:

IC50 (endogenous P2X4 channels)	IC50 (human P2X4) [nM]	Emax (endogenous P2X4 channels) [%]	SMILES
59 nM (2×) and 21 nM and 76 nM and 45 nM	47		NS(=O)(=O)c1cc(NC(=O)Cc2ccccc2Cl)ccc1-n1cc(C(F)(F)F)cn1 [Example 19, 2-(2-Chlorophenyl)-N-{3-sulfamoyl-4-[4-(trifluoromethyl)-1H-pyrazol-1-yl]phenyl}acetamide]
105 nM and 32 nM and 71 nM	32	88	N#Cc1cnn(-c2ccc(NC(=O)Cc3ccccc3Cl)cc2S(N)(=O)=O)c1 [Example 39, 2-(2-Chlorophenyl)-N-[4-(4-cyano-1H-pyrazol-1-yl)-3-sulfamoylphenyl]acetamide]

Reference: patent US20210179577A1, “AROMATIC SULFONAMIDE DERIVATIVES FOR THE TREATMENT OF ISCHEMIC STROKE” (Bayer Aktiengesellschaft, priority 2017, published 2021)
